Measured values reported in ChEMBL document CHEMBL1201862, “PubChem BioAssay data set” (2004).
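These data come from cells grown in 96-well plates and exposed to compound for 48 hours at five concentrations. Abbreviation: GI50, concentration required for 50% inhibition of growth.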 Active and inactive are the calls of the source. No stated cut-off is given here; in the data, active = GI50 up to about 1.1 µM and inactive = higher.

How the values were obtained:
Assay in all cases: NCI-60 cell line screen, 48 h
[1] = system: NCI-H460
[2] = system: MOLT-4
[3] = system: MDA-MB-435
[4] = system: BT-549
[5] = system: NCI/ADR-RES
[6] = system: MDA-MB-231
[7] = system: CAKI-1
[8] = system: SF-539
[9] = system: UACC-62
[10] = system: CCRF-CEM
[11] = system: IGROV-1
[12] = system: KM12
[13] = system: SNB-19
[14] = system: SK-MEL-5
[15] = system: HCC 2998
[16] = system: M14
[17] = system: EKVX
[18] = system: TK-10
[19] = system: SK-MEL-2
[20] = system: A498

SMILES | GI50 [1] | GI50 [2] | GI50 [3] | GI50 [4] | GI50 [5] | GI50 [6] | GI50 [7] | GI50 [8] | GI50 [9] | GI50 [10] | GI50 [11] | GI50 [12] | GI50 [13] | GI50 [14] | GI50 [15] | GI50 [16] | GI50 [17] | GI50 [18] | GI50 [19] | GI50 [20]
NNC(=O)c1cc([N+](=O)[O-])ccc1NC(=O)C12CC3CC(CC(C3)C1)C2 | 18.1 µM (inactive) | 3.32 µM (inactive) | 14.3 µM (inactive) | 26.6 µM (inactive) | 15.9 µM (inactive) | 5.01 µM (inactive) | 5.7 µM (inactive) | 13.5 µM (inactive) | 10 µM (inactive) | 2.27 µM (inactive) | 1.9 µM (inactive) | 20.1 µM (inactive) | 2.98 µM (inactive) | 19.2 µM (inactive) | 10.5 µM (inactive) | 13 µM (inactive) | 7.05 µM (inactive) | 12.2 µM (inactive) |  | 
[O-][S+](Nc1ccccc1)c1ccc(Cl)cc1 (stereo not drawn) | 56 µM (inactive) | 31.4 µM (inactive) | 31.4 µM (inactive) | 32.6 µM (inactive) | 64.9 µM (inactive) | > 100 µM (inactive) | > 100 µM (inactive) | 18.9 µM (inactive) | 14.9 µM (inactive) | 89.9 µM (inactive) | 24.7 µM (inactive) | 17.5 µM (inactive) | > 100 µM (inactive) | 35.9 µM (inactive) | 69.7 µM (inactive) | > 100 µM (inactive) | > 100 µM (inactive) | > 100 µM (inactive) | > 100 µM (inactive) | 
COc1ccc(-c2csc3c2-n2cccc2C3=O)cc1 | 0.11 µM (active) | 0.0444 µM (active) | 0.0132 µM (active) | 8.93 µM (inactive) | < 0.0204 µM (active) | < 0.0375 µM (active) | 0.268 µM (active) | 0.0304 µM (active) | 0.0269 µM (active) | 0.0242 µM (active) | 0.258 µM (active) | 0.0401 µM (active) | 0.0745 µM (active) | 0.0581 µM (active) | 0.344 µM (active) | 0.0346 µM (active) | 0.767 µM (active) |  | 0.366 µM (active) | 0.698 µM (active)
CCC(=O)C(CCN1CCC(N2C(=O)C(CCC#N)c3ccccc32)CC1)(c1ccccc1)c1ccccc1 (stereo not drawn) | 11.3 µM (inactive) | 4.56 µM (inactive) | 4.85 µM (inactive) | 13.3 µM (inactive) | 11.5 µM (inactive) | 7.36 µM (inactive) | 21.9 µM (inactive) | 18.3 µM (inactive) | 15.6 µM (inactive) |  | 14.6 µM (inactive) | 13.4 µM (inactive) | 17.2 µM (inactive) | 10.3 µM (inactive) | 12.4 µM (inactive) | 10.1 µM (inactive) |  | 12.5 µM (inactive) | 13.9 µM (inactive) | 23.2 µM (inactive)
COc1cc2c(cc1O)C(=O)O[C@@H]1CC=C3CCN(C)[C@H]3[C@H]21 |  | > 25 µM (inactive) | > 25 µM (inactive) | > 25 µM (inactive) | > 25 µM (inactive) | > 25 µM (inactive) | > 25 µM (inactive) |  | > 25 µM (inactive) | > 25 µM (inactive) | > 25 µM (inactive) | > 25 µM (inactive) | > 25 µM (inactive) | > 25 µM (inactive) | > 25 µM (inactive) | > 25 µM (inactive) | > 25 µM (inactive) | > 25 µM (inactive) | > 25 µM (inactive) | > 25 µM (inactive)
CC12CC(=O)C3C(CCC4=CC(=O)CCC43C)C1CC=C2CC(=O)O (stereo not drawn) | > 100 µM (inactive) | > 100 µM (inactive) | > 100 µM (inactive) | > 100 µM (inactive) | > 100 µM (inactive) | > 100 µM (inactive) | > 100 µM (inactive) | > 100 µM (inactive) | > 100 µM (inactive) | > 100 µM (inactive) | > 100 µM (inactive) | > 100 µM (inactive) | > 100 µM (inactive) | > 100 µM (inactive) |  | > 100 µM (inactive) | > 100 µM (inactive) | > 100 µM (inactive) | > 100 µM (inactive) | > 100 µM (inactive)
O=c1[nH]nc(Cc2ccccc2)n1CCCl | > 100 µM (inactive) | > 100 µM (inactive) | > 100 µM (inactive) | > 100 µM (inactive) | > 100 µM (inactive) | > 100 µM (inactive) | > 100 µM (inactive) | > 100 µM (inactive) | > 100 µM (inactive) | > 100 µM (inactive) | > 100 µM (inactive) | > 100 µM (inactive) | > 100 µM (inactive) |  | > 100 µM (inactive) | > 100 µM (inactive) | > 100 µM (inactive) |  | > 100 µM (inactive) | > 100 µM (inactive)
CCOC(=O)/C(=C\c1cccc(C)c1)C(C)=O | 20.8 µM (inactive) | 10.2 µM (inactive) | 16.3 µM (inactive) | 10.8 µM (inactive) | 19.6 µM (inactive) | 12.4 µM (inactive) | 20.9 µM (inactive) | 16.7 µM (inactive) | 16.5 µM (inactive) |  | 15.4 µM (inactive) | 15.2 µM (inactive) | 17.7 µM (inactive) | 16.6 µM (inactive) | 15.1 µM (inactive) | 17.4 µM (inactive) | 48 µM (inactive) | 16.3 µM (inactive) | 10.1 µM (inactive) | 13.4 µM (inactive)
COC(=O)/C=C(C)/C=C\COC1CCCCO1 (stereo not drawn) | > 100 µM (inactive) | > 100 µM (inactive) | > 100 µM (inactive) | > 100 µM (inactive) | > 100 µM (inactive) | > 100 µM (inactive) | > 100 µM (inactive) |  | > 100 µM (inactive) | > 100 µM (inactive) | > 100 µM (inactive) | > 100 µM (inactive) | > 100 µM (inactive) | > 100 µM (inactive) | > 100 µM (inactive) | > 100 µM (inactive) | > 100 µM (inactive) | > 100 µM (inactive) | > 100 µM (inactive) | > 100 µM (inactive)
CCCC(=O)NC1CCc2cc(OC)c(OC)c(OC)c2-c2ccc(OC)c(=O)cc21 (stereo not drawn) | 0.000644 µM (active) | 0.000493 µM (active) | 0.000296 µM (active) | 0.01 µM (active) | 0.118 µM (active) | 0.0004 µM (active) |  | 0.000296 µM (active) | 0.000303 µM (active) | 0.00028 µM (active) | 0.000828 µM (active) | 0.000449 µM (active) | 0.000519 µM (active) | 0.000356 µM (active) | 0.00186 µM (active) | 0.000817 µM (active) | 0.000577 µM (active) | 78.5 µM (inactive) | 0.01 µM (active) | 0.00807 µM (active)
COC(=O)C12CCCN1CCC2 | > 100 µM (inactive) | > 100 µM (inactive) | > 100 µM (inactive) | > 100 µM (inactive) | > 100 µM (inactive) | > 100 µM (inactive) | > 100 µM (inactive) |  | > 100 µM (inactive) | > 100 µM (inactive) |  | > 100 µM (inactive) | > 100 µM (inactive) | > 100 µM (inactive) | > 100 µM (inactive) | > 100 µM (inactive) | > 100 µM (inactive) | > 100 µM (inactive) | > 100 µM (inactive) | 
O=C1NC(N2CCOCC2)=N/C1=C\c1ccc(O)cc1 |  | > 100 µM (inactive) | > 100 µM (inactive) | > 100 µM (inactive) | > 100 µM (inactive) | > 100 µM (inactive) | > 100 µM (inactive) | > 100 µM (inactive) | > 100 µM (inactive) | > 100 µM (inactive) | > 100 µM (inactive) | > 100 µM (inactive) | > 100 µM (inactive) |  | > 100 µM (inactive) | > 100 µM (inactive) | > 100 µM (inactive) | > 100 µM (inactive) | > 100 µM (inactive) | 
CCCCCCCCC[C@@H]1C[C@@H]2CCC3C(C(=O)OC)=C(C)N=C(N1)N32 (stereo partly drawn) | 3.65 µM (inactive) | 8.22 µM (inactive) | 2.25 µM (inactive) | 10.6 µM (inactive) | 18.7 µM (inactive) | 5.13 µM (inactive) | 17.3 µM (inactive) | 3.29 µM (inactive) | 4.52 µM (inactive) | > 100 µM (inactive) | 4.72 µM (inactive) | 3.43 µM (inactive) | 4.18 µM (inactive) | 5.32 µM (inactive) | 2.86 µM (inactive) | 5.46 µM (inactive) | 10.5 µM (inactive) | 13.2 µM (inactive) | 11.1 µM (inactive) | 
C[P+](c1ccccc1)(c1ccc(Cl)cc1)c1ccc(Cl)cc1 | 24.2 µM (inactive) |  | 5.45 µM (inactive) | 21.3 µM (inactive) | > 100 µM (inactive) | 13.2 µM (inactive) |  | 19.8 µM (inactive) | 10.1 µM (inactive) |  | 4.94 µM (inactive) |  | 13 µM (inactive) | 2.84 µM (inactive) | 8.61 µM (inactive) | 11.6 µM (inactive) | 21.3 µM (inactive) | 14.2 µM (inactive) | 19.9 µM (inactive) | 27.5 µM (inactive)
CC(=O)OC[C@H]1O[C@@H](O[C@H]2[C@H](OC(C)=O)C=CO[C@@H]2COC(C)=O)C(OC(C)=O)[C@H]2OC(C)(C)O[C@H]21 (stereo partly drawn) | > 100 µM (inactive) | > 100 µM (inactive) | 48.1 µM (inactive) | 36.6 µM (inactive) | > 100 µM (inactive) | > 100 µM (inactive) | > 100 µM (inactive) | > 100 µM (inactive) | > 100 µM (inactive) | 62.8 µM (inactive) | > 100 µM (inactive) | > 100 µM (inactive) | > 100 µM (inactive) | 58.9 µM (inactive) | > 100 µM (inactive) | > 100 µM (inactive) | > 100 µM (inactive) | > 100 µM (inactive) |  | 
